Laboratory results taken from patent US20250270224A1, “POLYCYCLIC POLY(ADP-RIBOSE) POLYMERASE SELECTIVE INHIBITOR” (XUANZHU BIOPHARMACEUTICAL CO., LTD., priority 2022, published 2025).

Legend:
MDA-MB-436 cells = test: In-vitro cytological inhibitory activity (CelltiterGlo assay), 7 days culture; type: cell-based; settings: BRCA1 mutated human breast cancer cells, CTG
Procedure: The MDA-MB-436 cells were adherent cells, and the culture solution was DMEM+10% FBS+1% ITS-G+16 μg/ml glutathione.
Cells in the logarithmic growth phase were collected and counted by a […]. The cell viability was detected by a trypan blue exclusion method, and the cell viability was kept over 90%. The cell concentration was adjusted to be in a proper range, and 90 μL of cell suspension was added into a 96-well plate respectively.
The stock solutions of the test compounds were diluted by 10 times from 10 mM to 1 mM with DMSO, and then continuously gradiently diluted by 3 times with DMSO into a total of 9 concentrations.
10 μL of compound working stock solution was added into each well in a 96-well plate inoculated with cells (diluted by 10 times, the final concentration of DMSO was 0.1%).
Solvent control: 0.1% DMSO (2 μL of DMSO was diluted with 198 μL of culture solution, and then 10 μL of the diluted solution was added into the well plate).
Blank control: the 96-well plate was detected and read 0 hour after the addition.
2.5 the 96-Well Plate was Placed in a 5% CO2 Cell Incubator at 37° C. To Culture for 7 Days
A CTG reagent was thawed and the 96-well plate was equilibrated to room temperature for 30 minutes, 60 μL of reagent (Celltiter Glo assay kit) was added into each well and shaken by a shaker for 2 minutes to mix uniformly (in the dark), and the mixture was incubated at room temperature for 20 minutes (in the dark). Light signal values were read by a multi-functional microplate reader.

PARP2 = PARP2 (Homo sapiens (Human), UniProt Q9UGN5); test: In-vitro enzymatic activity, PARP2 (histone-coated plate, chemiluminescence detection); type: biochemical; settings: class symbols
Sequence of PARP2 (Q9UGN5 whole entry): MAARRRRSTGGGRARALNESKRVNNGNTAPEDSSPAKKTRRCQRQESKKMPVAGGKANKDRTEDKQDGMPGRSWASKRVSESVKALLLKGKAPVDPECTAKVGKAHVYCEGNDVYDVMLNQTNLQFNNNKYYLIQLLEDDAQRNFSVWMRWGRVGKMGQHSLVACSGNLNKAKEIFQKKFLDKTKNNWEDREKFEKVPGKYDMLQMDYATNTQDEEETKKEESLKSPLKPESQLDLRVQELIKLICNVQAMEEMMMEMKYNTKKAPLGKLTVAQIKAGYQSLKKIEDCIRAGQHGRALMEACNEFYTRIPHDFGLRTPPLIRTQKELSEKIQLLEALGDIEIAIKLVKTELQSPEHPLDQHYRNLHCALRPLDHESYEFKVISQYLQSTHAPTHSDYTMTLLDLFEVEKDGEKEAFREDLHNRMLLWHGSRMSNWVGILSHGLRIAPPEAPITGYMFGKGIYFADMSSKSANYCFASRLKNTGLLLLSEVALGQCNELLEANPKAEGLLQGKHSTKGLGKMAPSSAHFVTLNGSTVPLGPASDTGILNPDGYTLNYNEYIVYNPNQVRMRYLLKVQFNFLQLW

PARP1 = PARP1 (Homo sapiens (Human), UniProt P09874); test: In-vitro enzymatic activity, PARP1 (histone-coated plate, chemiluminescence detection); type: biochemical; settings: class symbols
Sequence of PARP1 (P09874 whole entry): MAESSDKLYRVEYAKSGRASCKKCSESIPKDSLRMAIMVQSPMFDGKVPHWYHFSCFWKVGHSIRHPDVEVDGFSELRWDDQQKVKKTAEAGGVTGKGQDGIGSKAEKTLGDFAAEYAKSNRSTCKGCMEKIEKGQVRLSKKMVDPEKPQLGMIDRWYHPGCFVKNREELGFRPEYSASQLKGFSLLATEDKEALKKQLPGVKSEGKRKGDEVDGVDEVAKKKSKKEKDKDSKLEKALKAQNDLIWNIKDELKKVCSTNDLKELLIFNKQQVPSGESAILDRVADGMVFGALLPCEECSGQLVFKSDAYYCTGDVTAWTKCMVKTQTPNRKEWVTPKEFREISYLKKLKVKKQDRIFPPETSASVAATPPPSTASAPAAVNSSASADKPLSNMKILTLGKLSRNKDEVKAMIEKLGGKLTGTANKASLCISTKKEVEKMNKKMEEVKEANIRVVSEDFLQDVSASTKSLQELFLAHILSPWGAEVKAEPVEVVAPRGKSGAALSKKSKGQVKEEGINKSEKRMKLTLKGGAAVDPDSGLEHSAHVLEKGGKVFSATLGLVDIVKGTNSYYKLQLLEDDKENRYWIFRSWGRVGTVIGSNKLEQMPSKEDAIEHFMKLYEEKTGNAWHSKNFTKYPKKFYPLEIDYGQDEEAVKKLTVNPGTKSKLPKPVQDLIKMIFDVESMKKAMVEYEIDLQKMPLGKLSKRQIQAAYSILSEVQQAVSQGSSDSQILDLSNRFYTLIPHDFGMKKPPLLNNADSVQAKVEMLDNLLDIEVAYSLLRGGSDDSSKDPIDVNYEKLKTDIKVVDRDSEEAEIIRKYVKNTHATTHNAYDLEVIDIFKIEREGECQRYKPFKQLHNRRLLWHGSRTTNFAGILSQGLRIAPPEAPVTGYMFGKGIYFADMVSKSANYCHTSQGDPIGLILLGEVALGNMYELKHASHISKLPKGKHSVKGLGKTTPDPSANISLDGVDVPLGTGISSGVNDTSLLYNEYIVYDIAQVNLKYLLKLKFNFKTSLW

Row | Compound | IC50 (MDA-MB-436 cells; MDA-MB-436, 168 h) [nM] | IC50 (PARP2) [nM] | IC50 (PARP1) [nM] | IC50 (MDA-MB-436 cells) [nM]
1 | CNC(=O)c1ccc(N2CCN(Cc3cc4ccn5c4c(c3F)NC(=O)[C@H]5C)CC2)c(F)n1 [Compound 36, (R)-6-fluoro-5-(4-((9-fluoro-3-methyl-2-oxo-2,3-dihydro-1H-pyrrolo[1,2,3-de]quinoxaline-8-yl)methyl)piperazine-1-yl)-N-methylpyridine formamide] | 11.1 | – | – | –
2 | CNC(=O)c1ccc(N2CCN(Cc3cc4cc(C)n5c4c(c3F)NC(=O)C5C)CC2)c(F)n1 (centres unmarked) [Compound 34, 6-fluoro-5-(4-((9-fluoro-3,5-dimethyl-2-oxo-2,3-dihydro-1H-pyrrolo[1,2,3-de]quinoxaline-8-yl)methyl)piperazine-1-yl)-N-methylpyridine formamide] | 13.6 | 100 to 1000 | 1 to 3 | –
3 | CNC(=O)c1ccc(N2CCN(Cc3cc4c5c(c3)c(F)nn5[C@H](C)C(=O)N4)CC2)c(F)n1 [Compound 49-2, (R)-6-fluoro-5-(4-((6-fluoro-3-methyl-2-oxo-2,3-dihydro-1H-pyrazolo[1,5,4-de]quinoxaline-8-yl)methyl)piperazine-1-yl)-N-methylpicolinamide] | 2.9 | 100 to 1000 | < 1 | –
4 | CNC(=O)c1ccc(N2CCN(Cc3cc4c5c(c(C)c(=O)[nH]c5c3F)CC4)CC2)c(F)n1 [Compound 6, 6-fluoro-5-(4-((8-fluoro-3-methyl-2-oxo-1,2,4,5-tetrahydrocyclopentyl[de]quinoline-7-yl)methyl)piperazine-1-yl)-N-methylpicolinamide] | – | – | – | 2
5 | CNC(=O)c1ccc(N2CCN(Cc3cc4c5c(ccn5CC(=O)N4)c3)CC2)c(F)n1 [Compound 11, 6-fluoro-N-methyl-5-(4-((2-oxo-2,3-dihydro-1H-pyrrolo[1,2,3-de]quinoxaline-8-yl)methyl)piperazine-1-yl)picolinamide] | 21.5 | – | – | –
6 | CNC(=O)c1ccc(N2CCN(Cc3cc4c5c(cnn5CC(=O)N4)c3)CC2)c(F)n1 [Compound 8, 6-fluoro-N-methyl-5-(4-((2-oxo-2,3-dihydro-1H-pyrazolo[1,5,4-de]quinoxaline-8-yl)methyl)piperazine-1-yl)picolinamide] | 129 | – | – | –
7 | (S)-6-fluoro-5-(4-((9-fluoro-3-methyl-2-oxo-2,3-dihydro-1H-pyrrolo[1,2,3-de]quinoxaline-8-yl) methyl)piperazine-1-yl)-N-methylpyridine formamide [Compound 35] | – | – | – | 46.5
8 | 5-(4-((6,9-difluoro-3-methyl-2-oxo-2,3-dihydro-1H-pyrrolo[1,2,3-de]quinoxaline-8-yl)methyl)piperazine-1-yl)-6-fluoro-N-methylpyridine Formamide [Compound 38] | – | 100 to 1000 | 1 to 3 | 15.2
9 | CNC(=O)c1ccc(N2CCN(Cc3cc4c5c(c(C)c(=O)[nH]c5c3)CCC4)CC2)c(F)n1 [Compound 25, 6-fluoro-N-methyl-5-(4-((3-methyl-2-oxo-2,4,5,6-tetrahydro-1H-benzo[de]quinoline-8-yl)methyl)piperazine-1-yl)picolinamide] | 15.8 | 10 to 100 | < 1 | –
10 | CNC(=O)c1ccc(N2CCN(Cc3cc4c5c(ccn5C(C)(C)C(=O)N4)c3)CC2)c(F)n1 [Compound 46, 5-(4-((3,3-dimethyl-2-oxo-2,3-dihydro-1H-pyrrolo[1,2,3-de]quinoxaline-8-yl)methyl)piperazine-1-yl)-6-fluoro-N-methylpicolinamide] | 9.2 | 100 to 1000 | 3 to 10 | –
11 | CNC(=O)c1ccc(N2CCN(Cc3cc4c5c(c(C)c(=O)[nH]c5c3)CC4)CC2)c(F)n1 [Compound 31, 6-fluoro-N-methyl-5-(4-((3-methyl-2-oxo-1,2,4,5-tetrahydrocyclopentane[de]quinoline-7-yl)methyl)piperazine-1-yl)pyridine carboxamide] | – | 10 to 100 | < 1 | 2.2
12 | CNC(=O)c1ccc(N2CCN(Cc3cc4c5c(c3)c(F)nn5[C@@H](C)C(=O)N4)CC2)c(F)n1 [Compound 49-1, (S)-6-fluoro-5-(4-((6-fluoro-3-methyl-2-oxo-2,3-dihydro-1H-pyrazolo[1,5,4-de]quinoxaline-8-yl)methyl)piperazine-1-yl)-N-methylpicolinamide] | 3.6 | 100 to 1000 | 1 to 3 | –
